Assay results from patent publication US10442835B2, “Water-soluble rapamycin derivatives” (Zhejiang Hisun Pharmaceutical Co., Ltd., priority 2016, dated 2019).
“And” between values parts separate entries of the source, which are not always exact repeats. Identical values can stand only once.

Key:
[1] = test system: human liver cancer cell HepG2; test: In vitro activity assay, growth of HepG2 (thymidine incorporation); type: cell-based; settings: 48 h
Excerpt: (§1) The anti-tumor activity and toxicity of the compounds according to the present invention can be assayed through standard operational procedures of pharmacological experiment. The experiments carried out herein can test the inhibitory effect of the compounds according to the present invention on the growth of human liver cancer cell HepG2, lung cancer cell NCI460, prostate cancer cell DU145, prostate cancer cell PC3, and human breast cancer cell MDA-MB-435. The operational procedure used is briefly described below by taking the inhibitory activity assay against human liver cancer cell HepG2 as an example.
Human liver cancer cell HepG2 grew in the follow medium:
Preparation of the growth medium: BRL minimum essential medium with Earle Salts (500 mL), with the addition of the following agents:
(§2) The operational procedure for the assay is as follows:
(§3) 1. Cells after being trypsinized were inoculated in 96-well plates at a concentration of 10^4 cells/well, and allowed to grow in a medium with a final volume of 200 μL. The 96-well plates after inoculation are allowed to stand for 24 hours at 37° C., in order to allow the cells to adhere to the surface of the wells.
(§4) 2. The medium was removed by carefully pipetting without disturbing the cell monolayer. 200 μL Fresh medium was added into each well. It is arranged to make it possible to collect samples from enough wells to run the experiments in triplicate.
(§5) 3. The compounds to be tested according to the present invention were dissolved into 10 μL phosphate buffered solution (PBS) and incubated for 48 h at 37° C.
(§6) 4. In the last 6 h of incubation, cells in each well of the 96-well plates were labeled by 1 microcurie T thymidine (New England Nuclear thymidine), by adding 10 μL PBS containing 1 microcurie T thymidine (which was added into the PBS on the day of collecting the samples for test). The 96-well plates were then returned to the incubator and incubated for the last 6 h.
(§7) 5. Without disturbing the cell monolayer, the radioactive medium was removed by pipetting. Then 50 μL of BRL 10×trypsin was added to each well, followed by incubation at 37° C. for 10 minutes or until the cell monolayer was detached from the bottom (or the wall) of each well. Samples were collected on glass-fiber diskettes using a Skatron 96-well cell harvester. Cells depositing on the glass-fiber diskettes were counted in a Wallac Betaplate counter.

lung cancer cell NCI460 = test: In vitro activity assay, growth of NCI460; type: cell-based; settings: NCI-460, 48 h
Excerpt: as §1, §2, §3, §4, §5, §6, §7

[2] = test system: prostate cancer cell DU145; test: In vitro activity assay, growth of DU145; type: cell-based; settings: Homo sapiens; DU-145; 48 h
Excerpt: as §1, §2, §3, §4, §5, §6, §7

prostate cancer cell PC3 = test: In vitro activity assay, growth of PC3; type: cell-based; settings: 48 h
Excerpt: as §1, §2, §3, §4, §5, §6, §7

[3] = test system: human breast cancer cell MDA-MB-435; test: In vitro activity assay, growth of MDA-MB-435; type: cell-based; settings: 48 h
Excerpt: as §1, §2, §3, §4, §5, §6, §7

[4] = test system: human lung cancer cell NCI-H460; test: In vivo inhibitory activity against NCI-H460 tumor in nude mice; settings: everolimus 5 mg/kg, compound I-1 6.8 mg/kg, qw 4×
DU145 = test: In vivo tumor inhibitory efficacy against DU145 tumor in nude mice, intragastrical vs injection; settings: for Mean Volume of Tumor: 3×/w, 4 w; for tumor inhibitory effect compared with intragastrical everolimus 5 mg/kg: compound I-1 tail vein injection, end of the test
Description: (§8) DU145 (the 3rd generation) tumors in the rapid proliferation stage inoculated in the axilla of nude mice were cut into tumor lumps with a size of 1 mm*1 mm*1 mm and then were inoculated subcutaneously to the right limb of nude mice using a trocar under a sterile condition. When the tumors grow to 150-200 mm^3, the mice were randomly divided into three groups and then administrated with the compounds for 4 weeks. The major diameter (a) and the minor diameter (b) of the tumors were measured 2 or 3 times a week. The tumor volume (TV) was calculated with the following equation: TV=½×a×b^2. Tumors were stripped and weighted at Day 28 and the tumor inhibition rate was calculated using the following equation: (tumor weight of control−tumor weight of experimental group)/tumor weight of control×100%.
(§9) The nude mice were divided into 3 groups with 4 mice per group when the tumors averagely grew to about 185-200 mm^3, depending on the growth regularity of the tumor and the dosage regimen.

[5] = test system: human renal cell carcinoma OS-RC-2; test: In vivo inhibitory activity against human renal cell carcinoma OS-RC-2 in nude mice; settings: for Tumor Weight ± SD: end of experiment
Description: The tumor inhibition rate was calculated.

[6] = Body weight of DU145 tumor nude mice; settings: 3×/w, 4 w;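 further: dosing started once xenografts reached 150-200 mm^3, with mice randomized into three groups, loss of body weight served as an indirect sign of drug toxicity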
Description: as §8, §9
G1: positive drug group: Everolimus (5 mg/kg, qw, 4 w, 3×/w); administration route: intragastrical administration;

[7] = Day 0, G2 compound I-1 3.4 mg/kg tail vein injection
[8] = Day 0, G3 compound I-1 1.7 mg/kg tail vein injection
[9] = Day 3, G2 compound I-1 3.4 mg/kg tail vein injection
[10] = Day 3, G3 compound I-1 1.7 mg/kg tail vein injection
[11] = Day 7, G2 compound I-1 3.4 mg/kg tail vein injection
[12] = Day 7, G3 compound I-1 1.7 mg/kg tail vein injection
[13] = Day 10, G2 compound I-1 3.4 mg/kg tail vein injection
[14] = G4 compound I-1 8.12 mg/kg ig 3×/qw
[15] = G5 compound I-1 2.0 mg/kg iv 3×/qw
[16] = G6 compound I-1 8.12 mg/kg iv 3×/qw
[17] = G7 compound I-1 32.7 mg/kg iv 1×/qw

CO[C@H]1C[C@@H]2CC[C@@H](C)[C@@](O)(O2)C(=O)C(=O)N2CCCC[C@H]2C(=O)OC([C@H](C)C[C@@H]2CC[C@@H](OCCOC(=O)CSC[C@H](NC(=O)CC[C@H](N)C(=O)O)C(=O)NCC(=O)O)[C@H](OC)C2)CC(=O)[C@H](C)/C=C(\C)[C@@H](O)[C@@H](OC)C(=O)[C@H](C)C[C@@H](C)\C=C/C=C/C=C/1C (stereo partly shown) [Compound I-1]
IC50 [1]: 11.127 ± 0.005 µM
IC50 (lung cancer cell NCI460): 27.204 ± 0.007 µM
IC50 [2]: 56.215 ± 0.003 µM
IC50 (prostate cancer cell PC3): 25.978 ± 0.008 µM
IC50 [3]: 55.345 ± 0.005 µM
Mean Volume of Tumor ([4]; Day 0): 195.1545 mm^3
Mean Volume of Tumor ([4]; Day 3): 232.4297 mm^3
Mean Volume of Tumor ([4]; Day 7): 273.2138 mm^3
Mean Volume of Tumor ([4]; Day 10): 360.0897 mm^3
Mean Volume of Tumor ([4]; Day 14): 506.8288 mm^3
Mean Volume of Tumor ([4]; Day 17): 612.8810 mm^3
Mean Volume of Tumor ([4]; Day 21): 934.2806 mm^3
Mean Volume of Tumor ([4]; Day 24): 1089.1761 mm^3
Tumor Inhibition Rate ([4]; Day 28, by tumor weight): 68% and 68.29%
Mean Volume of Tumor ([4]; Day 28): 1354.8457 mm^3
Tumor Weight ± SD ([4]; Day 28): 0.8463 ± 0.1582 g
Mean Volume of Tumor (DU145; [7]): 189.84 mm^3
Mean Volume of Tumor (DU145; [8]): 187.29 mm^3
Mean Volume of Tumor (DU145; [9]): 203.79 mm^3
Mean Volume of Tumor (DU145; [10]): 235.34 mm^3
Mean Volume of Tumor (DU145; [11]): 223.91 mm^3
Mean Volume of Tumor (DU145; [12]): 250.90 mm^3
Mean Volume of Tumor (DU145; [13]): 245.45 mm^3
Mean Volume of Tumor (DU145; Day 10, G3 compound I-1 1.7 mg/kg tail vein injection): 269.25 mm^3
Mean Volume of Tumor (DU145; Day 14, G2 compound I-1 3.4 mg/kg tail vein injection): 255.59 mm^3
Mean Volume of Tumor (DU145; Day 14, G3 compound I-1 1.7 mg/kg tail vein injection): 281.22 mm^3
Mean Volume of Tumor (DU145; Day 17, G2 compound I-1 3.4 mg/kg tail vein injection): 261.55 mm^3
Mean Volume of Tumor (DU145; Day 17, G3 compound I-1 1.7 mg/kg tail vein injection): 280.18 mm^3
Mean Volume of Tumor (DU145; Day 21, G2 compound I-1 3.4 mg/kg tail vein injection): 257.96 mm^3
Mean Volume of Tumor (DU145; Day 21, G3 compound I-1 1.7 mg/kg tail vein injection): 300.52 mm^3
Mean Volume of Tumor (DU145; Day 24, G2 compound I-1 3.4 mg/kg tail vein injection): 241.11 mm^3
Mean Volume of Tumor (DU145; Day 24, G3 compound I-1 1.7 mg/kg tail vein injection): 288.39 mm^3
Mean Volume of Tumor (DU145; Day 28, G2 compound I-1 3.4 mg/kg tail vein injection): 267.54 mm^3
Mean Volume of Tumor (DU145; Day 28, G3 compound I-1 1.7 mg/kg tail vein injection): 323.75 mm^3
tumor inhibitory effect compared with intragastrical everolimus 5 mg/kg (DU145; dosage equivalent to a quarter of that of everolimus (1.7 mg/kg)): substantially the same tumor inhibitory effect as that of intragastrical administration of everolimus
tumor inhibitory effect compared with intragastrical everolimus 5 mg/kg (DU145; dosage equivalent to half of that of everolimus (3.4 mg/kg)): significantly superior to that of intragastric administration of everolimus
Tumor Inhibition Rate [5, 14]: 55.6%
Tumor Inhibition Rate [5, 15]: 57.1%
Tumor Inhibition Rate [5, 16]: 59.9%
Tumor Inhibition Rate [5, 17]: 60.6%
tumor inhibitory effect (FIG. 7) ([5]; compound I-1 injection, 2.0 mg/Kg 3 times a week or 32.7 mg/Kg once a week): a good tumor inhibitory effect
Tumor Weight ± SD [5, 14]: 0.3002 ± 0.1108 g
Tumor Weight ± SD [5, 15]: 0.2905 ± 0.0936 g
Tumor Weight ± SD [5, 16]: 0.2710 ± 0.1695 g
Tumor Weight ± SD [5, 17]: 0.2669 ± 0.1023 g
Body Weight, mean value [6, 7]: 25.30 g
Body Weight, mean value [6, 8]: 26.86 g
Body Weight, mean value [6, 9]: 25.92 g
Decrease rate (body weight) [6, 9]: −2.45%
Body Weight, mean value [6, 10]: 27.32 g
Decrease rate (body weight) [6, 10]: −1.70%
Decrease in body weight ([6]; Day 3 vs Day 0, G2 compound I-1 3.4 mg/kg tail vein injection): -0.62 g
Decrease in body weight ([6]; Day 3 vs Day 0, G3 compound I-1 1.7 mg/kg tail vein injection): -0.46 g
Body Weight, mean value [6, 11]: 26.13 g
Decrease rate (body weight) [6, 11]: −3.29%
Body Weight, mean value [6, 12]: 27.17 g
Decrease rate (body weight) [6, 12]: −1.16%
Decrease in body weight ([6]; Day 7 vs Day 0, G2 compound I-1 3.4 mg/kg tail vein injection): -0.83 g
Decrease in body weight ([6]; Day 7 vs Day 0, G3 compound I-1 1.7 mg/kg tail vein injection): -0.31 g
Body Weight, mean value [6, 13]: 26.15 g
Decrease rate (body weight) [6, 13]: −3.37%
